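Five compound concentrations were applied to cells in 96-well plates for 48 hours; endpoints were derived by simple linear interpolation of the resulting dose-response curve. GI50: concentration for 50% inhibition of growth.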 Activity calls are given as the source filed them. Rule as the data show it: active = GI50 up to about 1.1 µM and inactive = higher.
Assays:
Assay in all cases: growth of human tumour cells (NCI), 48 h
Hs-578T = tested on: Hs-578T
SK-MEL-5 = tested on: SK-MEL-5
MCF7 = tested on: MCF7
A498 = tested on: A498
COLO 205 = tested on: COLO 205
TK-10 = tested on: TK-10
DU-145 = tested on: DU-145
SW-620 = tested on: SW-620
HCC 2998 = tested on: HCC 2998
786-0 = tested on: 786-0
MDA-MB-231 = tested on: MDA-MB-231
OVCAR-3 = tested on: OVCAR-3
CCRF-CEM = tested on: CCRF-CEM
IGROV-1 = tested on: IGROV-1
SNB-19 = tested on: SNB-19
ACHN = tested on: ACHN
SR = tested on: SR
OVCAR-4 = tested on: OVCAR-4
SK-OV-3 = tested on: SK-OV-3

| Compound | GI50 (Hs-578T) | GI50 (SK-MEL-5) | GI50 (MCF7) | GI50 (A498) | GI50 (COLO 205) | GI50 (TK-10) | GI50 (DU-145) | GI50 (SW-620) | GI50 (HCC 2998) | GI50 (786-0) | GI50 (MDA-MB-231) | GI50 (OVCAR-3) | GI50 (CCRF-CEM) | GI50 (IGROV-1) | GI50 (SNB-19) | GI50 (ACHN) | GI50 (SR) | GI50 (OVCAR-4) | GI50 (SK-OV-3) |
| --- | --- | --- | --- | --- | --- | --- | --- | --- | --- | --- | --- | --- | --- | --- | --- | --- | --- | --- | --- |
| NC(Cc1ccc(OCc2ccccc2)cn1)C(=O)OCc1ccccc1 (stereo not given) | > 100 µM (inactive) | > 100 µM (inactive) | > 100 µM (inactive) | > 100 µM (inactive) | > 100 µM (inactive) | > 100 µM (inactive) | > 100 µM (inactive) | > 100 µM (inactive) | 52.4 µM (inactive) | > 100 µM (inactive) | > 100 µM (inactive) | > 100 µM (inactive) | > 100 µM (inactive) | > 100 µM (inactive) | > 100 µM (inactive) | > 100 µM (inactive) | > 100 µM (inactive) | > 100 µM (inactive) | – |
| N#CC(C#N)=C1CCCS(=O)(=O)c2ccccc21 | > 100 µM (inactive) | – | > 100 µM (inactive) | 56.4 µM (inactive) | > 100 µM (inactive) | > 100 µM (inactive) | > 100 µM (inactive) | > 100 µM (inactive) | > 100 µM (inactive) | > 100 µM (inactive) | > 100 µM (inactive) | > 100 µM (inactive) | > 100 µM (inactive) | > 100 µM (inactive) | > 100 µM (inactive) | > 100 µM (inactive) | > 100 µM (inactive) | > 100 µM (inactive) | > 100 µM (inactive) |
| Cc1cc(N(CCC#N)CCC#N)ccc1C(/N=N\c1ccc([N+](=O)[O-])cc1)=N\NC(=O)c1cc(Cl)ccc1O | 15.7 µM (inactive) | 30.6 µM (inactive) | 22.6 µM (inactive) | 26.7 µM (inactive) | 25 µM (inactive) | 46.1 µM (inactive) | 46.3 µM (inactive) | – | 16.4 µM (inactive) | 47.8 µM (inactive) | 30.3 µM (inactive) | 14.2 µM (inactive) | 25.1 µM (inactive) | 24.2 µM (inactive) | 34.7 µM (inactive) | 27.8 µM (inactive) | 24.3 µM (inactive) | 26.5 µM (inactive) | 50.7 µM (inactive) |
| C=C1C(=O)O[C@H]2/C=C(/C)C3=CC(=O)[C@@](C)(C[C@@H](OC(=O)/C(C)=C\C)C12)O3 (stereo not given in full) | 6.05 µM (inactive) | 1.03 µM (active) | 0.36 µM (active) | 5.2 µM (inactive) | 0.284 µM (active) | – | 2.58 µM (inactive) | 0.128 µM (active) | 1.59 µM (inactive) | 0.426 µM (active) | 3.05 µM (inactive) | – | 0.0953 µM (active) | 0.971 µM (active) | – | 0.232 µM (active) | 0.083 µM (active) | 3.95 µM (inactive) | 12.2 µM (inactive) |
| Cc1ccc(C2=CC(=O)OC(C[P+](c3ccccc3)(c3ccccc3)c3ccccc3)(c3ccccc3)O2)cc1 (stereo not given) | 18.2 µM (inactive) | 15.4 µM (inactive) | 21.1 µM (inactive) | 15.1 µM (inactive) | 14.3 µM (inactive) | 20.1 µM (inactive) | 16.5 µM (inactive) | – | 22.4 µM (inactive) | 19.3 µM (inactive) | 28.5 µM (inactive) | 16.4 µM (inactive) | 16.8 µM (inactive) | 13.7 µM (inactive) | 17 µM (inactive) | 21.3 µM (inactive) | 15.6 µM (inactive) | 16.4 µM (inactive) | 18.2 µM (inactive) |
| C=C1CCC2CC1C(C(=O)c1c[nH]c3ccccc13)=NC2(C)C (stereo not given) | > 100 µM (inactive) | > 100 µM (inactive) | > 100 µM (inactive) | > 100 µM (inactive) | > 100 µM (inactive) | – | > 100 µM (inactive) | > 100 µM (inactive) | > 100 µM (inactive) | > 100 µM (inactive) | > 100 µM (inactive) | > 100 µM (inactive) | > 100 µM (inactive) | > 100 µM (inactive) | > 100 µM (inactive) | > 100 µM (inactive) | > 100 µM (inactive) | > 100 µM (inactive) | > 100 µM (inactive) |
| Cc1c(/C=N/NC(=S)N2CCCCC2)c(=O)n(-c2ccccc2)n1C | 39.3 µM (inactive) | 38.5 µM (inactive) | 43.9 µM (inactive) | 24.3 µM (inactive) | 29.9 µM (inactive) | 61.2 µM (inactive) | > 100 µM (inactive) | 74.1 µM (inactive) | 75 µM (inactive) | 73.5 µM (inactive) | > 100 µM (inactive) | 48.4 µM (inactive) | 23.2 µM (inactive) | > 100 µM (inactive) | 71.4 µM (inactive) | 32.4 µM (inactive) | > 100 µM (inactive) | – | 68.1 µM (inactive) |
| Oc1ccc(Cc2cc(Cc3ccc(O)cc3)cc(Cc3ccc(O)cc3)c2)cc1 | > 50 µM (inactive) | – | > 50 µM (inactive) | > 50 µM (inactive) | – | > 50 µM (inactive) | > 50 µM (inactive) | > 50 µM (inactive) | > 50 µM (inactive) | > 50 µM (inactive) | > 50 µM (inactive) | > 50 µM (inactive) | – | > 50 µM (inactive) | > 50 µM (inactive) | > 50 µM (inactive) | > 50 µM (inactive) | > 50 µM (inactive) | > 50 µM (inactive) |

Reference: ChEMBL document CHEMBL1201862, “PubChem BioAssay data set” (2004)
